Results reported in PubChem BioAssay (NCI).
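A five-concentration, 48-hour dose response in 96-well plates underlies each endpoint, interpolated linearly between surrounding concentrations. TGI: total growth inhibition.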

What was measured:
Test in all cases: DTP human tumour cell line panel, 48 h
UO-31 renal = tested on: UO-31 renal
M19-MEL melanoma = tested on: M19-MEL melanoma
NCI-H522 lung = tested on: NCI-H522 lung
NCI-H23 lung = tested on: NCI-H23 lung
SNB-78 CNS = tested on: SNB-78 CNS
KM20L2 colon = tested on: KM20L2 colon
HOP-92 NSCLC = tested on: HOP-92 NSCLC
SF-539 CNS = tested on: SF-539 CNS
RXF-631 renal = tested on: RXF-631 renal
CAKI-1 renal = tested on: CAKI-1 renal
EKVX NSCLC = tested on: EKVX NSCLC
HS 578T breast = tested on: HS 578T breast
SF-295 CNS = tested on: SF-295 CNS
NCI/ADR-RES ovarian = tested on: NCI/ADR-RES ovarian
MDA-N = tested on: MDA-N
DMS 114 small cell lung = tested on: DMS 114 small cell lung
786-0 renal = tested on: 786-0 renal
LOX IMVI melanoma = tested on: LOX IMVI melanoma
COLO 205 colon = tested on: COLO 205 colon
BT-549 breast = tested on: BT-549 breast
HOP-62 NSCLC = tested on: HOP-62 NSCLC
SNB-19 CNS = tested on: SNB-19 CNS
M14 melanoma = tested on: M14 melanoma
CCRF-CEM leukemia = tested on: CCRF-CEM leukemia
DMS 273 small cell lung = tested on: DMS 273 small cell lung
T-47D breast = tested on: T-47D breast
OVCAR-4 ovarian = tested on: OVCAR-4 ovarian
KM12 colon = tested on: KM12 colon
OVCAR-3 ovarian = tested on: OVCAR-3 ovarian
MOLT-4 leukemia = tested on: MOLT-4 leukemia
OVCAR-8 ovarian = tested on: OVCAR-8 ovarian
PC-3 prostate = tested on: PC-3 prostate
MCF7 breast = tested on: MCF7 breast
TK-10 renal = tested on: TK-10 renal
NCI-H460 lung = tested on: NCI-H460 lung
SN12C renal = tested on: SN12C renal
LXFL 529 NSCLC = tested on: LXFL 529 NSCLC
SK-OV-3 ovarian = tested on: SK-OV-3 ovarian
HL-60(TB) leukemia = tested on: HL-60(TB) leukemia
HOP-18 NSCLC = tested on: HOP-18 NSCLC
RXF 393 renal = tested on: RXF 393 renal
ACHN renal = tested on: ACHN renal
XF 498 CNS = tested on: XF 498 CNS
SNB-75 CNS = tested on: SNB-75 CNS
HCC-2998 colon = tested on: HCC-2998 colon
MDA-MB-435 = tested on: MDA-MB-435
DU-145 prostate = tested on: DU-145 prostate
DLD-1 colon = tested on: DLD-1 colon
K-562 leukemia = tested on: K-562 leukemia
OVCAR-5 ovarian = tested on: OVCAR-5 ovarian
NCI-H226 lung = tested on: NCI-H226 lung
SK-MEL-28 melanoma = tested on: SK-MEL-28 melanoma
HCT-15 colon = tested on: HCT-15 colon
A498 renal = tested on: A498 renal
MDA-MB-231 breast = tested on: MDA-MB-231 breast
SW-620 colon = tested on: SW-620 colon
HCT-116 colon = tested on: HCT-116 colon
SR leukemia = tested on: SR leukemia
SK-MEL-2 melanoma = tested on: SK-MEL-2 melanoma
HT29 colon = tested on: HT29 colon
IGROV1 ovarian = tested on: IGROV1 ovarian
A549 NSCLC = tested on: A549 NSCLC
UACC-257 melanoma = tested on: UACC-257 melanoma
MALME-3M melanoma = tested on: MALME-3M melanoma
RPMI-8226 leukemia = tested on: RPMI-8226 leukemia
SK-MEL-5 melanoma = tested on: SK-MEL-5 melanoma
SF-268 CNS = tested on: SF-268 CNS
UACC-62 melanoma = tested on: UACC-62 melanoma
U251 CNS = tested on: U251 CNS

CCOC(=O)C(=O)N=Nc1nc2c(O)c3ccccc3c(O)c2s1
TGI (UO-31 renal): 6.12 µM | TGI (M19-MEL melanoma): 1.27 µM | TGI (NCI-H522 lung): 8.79 µM | TGI (NCI-H23 lung): 4.91 µM | TGI (SNB-78 CNS): 8.48 µM | TGI (KM20L2 colon): 32.1 µM | TGI (HOP-92 NSCLC): 23.1 µM | TGI (SF-539 CNS): 5.13 µM | TGI (RXF-631 renal): 39.9 µM | TGI (CAKI-1 renal): 35.6 µM | TGI (EKVX NSCLC): 19.4 µM | TGI (HS 578T breast): 10.5 µM | TGI (SF-295 CNS): 12.3 µM | TGI (NCI/ADR-RES ovarian): 4.89 µM | TGI (MDA-N): 3.2 µM | TGI (DMS 114 small cell lung): 3.39 µM | TGI (786-0 renal): 22.8 µM | TGI (LOX IMVI melanoma): 3.88 µM | TGI (COLO 205 colon): 25.2 µM | TGI (BT-549 breast): 22.9 µM | TGI (HOP-62 NSCLC): 24.7 µM | TGI (SNB-19 CNS): 28.9 µM | TGI (M14 melanoma): 4.7 µM | TGI (CCRF-CEM leukemia): > 100 µM | TGI (DMS 273 small cell lung): 9.2 µM | TGI (T-47D breast): 35.8 µM | TGI (OVCAR-4 ovarian): 3.64 µM | TGI (KM12 colon): 20.8 µM | TGI (OVCAR-3 ovarian): 4.07 µM | TGI (MOLT-4 leukemia): > 100 µM | TGI (OVCAR-8 ovarian): 5.12 µM | TGI (PC-3 prostate): 27.1 µM | TGI (MCF7 breast): 30.4 µM | TGI (TK-10 renal): 39.6 µM | TGI (NCI-H460 lung): 26.7 µM | TGI (SN12C renal): 3.46 µM | TGI (LXFL 529 NSCLC): 3.3 µM | TGI (SK-OV-3 ovarian): 34.4 µM | TGI (HL-60(TB) leukemia): > 100 µM | TGI (HOP-18 NSCLC): 7.06 µM | TGI (RXF 393 renal): 9.55 µM | TGI (ACHN renal): 6.74 µM | TGI (XF 498 CNS): 4.46 µM | TGI (SNB-75 CNS): 9.02 µM | TGI (HCC-2998 colon): 28.6 µM | TGI (MDA-MB-435): 3.15 µM | TGI (DU-145 prostate): 31.6 µM | TGI (DLD-1 colon): 10.2 µM | TGI (K-562 leukemia): 12.7 µM | TGI (OVCAR-5 ovarian): 16.1 µM | TGI (NCI-H226 lung): 30.2 µM | TGI (SK-MEL-28 melanoma): 6.38 µM | TGI (HCT-15 colon): 6.49 µM | TGI (A498 renal): 38.2 µM | TGI (MDA-MB-231 breast): 12.7 µM | TGI (SW-620 colon): 5.7 µM | TGI (HCT-116 colon): 5.96 µM | TGI (SR leukemia): > 100 µM | TGI (SK-MEL-2 melanoma): 8.98 µM | TGI (HT29 colon): 35 µM | TGI (IGROV1 ovarian): 14.6 µM | TGI (A549 NSCLC): 17.6 µM | TGI (UACC-257 melanoma): 3.75 µM | TGI (MALME-3M melanoma): 3.48 µM | TGI (RPMI-8226 leukemia): > 19.9 µM | TGI (SK-MEL-5 melanoma): 3.62 µM | TGI (SF-268 CNS): 10.8 µM | TGI (UACC-62 melanoma): 11.5 µM | TGI (U251 CNS): 14.1 µM
